From patent EP2068894B1, “USE OF CIS-RHENIUM (III) DI[…] FOR POTENTIATING THE A[…] OF PLATINIUM COMPLEXES” (SOCIETE DE CO[…] RECHERCHES THERAPEUTIQUES, priority 2006, dated 2007)

Assays:
Assay type in all cases: in vivo, Wistar rats
[1] = Hemoglobin concentration in blood of tumor-bearing rats; details: for concentration of Hb: blood, day 21 after tumor cells inoculation, cisplatin 8 mg/kg i.p. day 9, Re2 7µM/kg i.p. every 2 days from day 3
Experimental: (§1) Wistar rats weighting 100-120 g were inoculated by tumor carcinoma Guerink (T8) cells (Experimental Oncology, 2003, Vol. 25, pp64-68). The cells were taken in the Institute of Oncology and Experimental Pathology by R.E.Kavetskiy (Kiev). The single intraperitoneal administration of Cisplatin at the dose of 8 mg/kg was made on the 9 day after the tumor inoculation according to the method disclosed by Taylor S.K. in Medical Hypothesis 2003; 60; n°1, pp 89-93. The intraperitoneal administration of the Re2 at the dose of 7µM/kg according to the schema of antioxidant therapy [Meerson F.Z. et al. Pat. Physiol. and Exp. Therap.(Rus) 1983;N5:25-9] in liposome forms [Sktemenko et al. Ukr.Biokhim.Journal (Ukr) 2002;74,N°6:38-43] began on the 3 day after the inoculation of the tumor cells and was repeated every 2 days until day 21. Body weights were measured from day 2 after tumor inoculation, the volume of tumors were assessed from the day 7. On the day 21 animals were sacrified under chlorophormium anesthesia and the tumors were isolated and weighted. Concentrations of hemoglobin (Hb) and quantity of red blood cells (RBC) were measured according to the method described by Chevary et al. in Laboratornoe delo (Rus) 1991;N°10:9-13
(§2) Four groups of 15 animals in each were compared: control group; group with introduction of cisplatin; group with introduction of Re2; and group with introduction of cisplatin together with Re2. Wilcoxon non parametric tests were used to compare the tumor volumes according to the absence of treatment and each group of treatment or between 2 treated groups. Growth of the tumors in control group was very rapid and reached […] and occupied approximately 1/3 of the animal weight. Dynamics of tumor growth is represented on the Figure 1.

RBC = assay: Morphological forms of red blood cells in blood of tumor-bearing rats; details: day 21 after tumor cells inoculation; for Damaged RBC / Discocytes / Echinocytes: morphological forms of RBC in blood
Experimental: as §1, §2

[2] = system: tumor carcinoma Guerink (T8) cells; assay: Tumor growth in rats inoculated with tumor carcinoma Guerink (T8) cells; details: for Weight of isolated tumors: day 21 after tumor cells inoculation, cisplatin 8 mg/kg i.p. single on day 9, Re2 7µM/kg i.p. in liposome forms every 2 days from day 3 to day 21; for tumor growth / measured tumor volumes: in comparison to control group, volumes assessed from day 7
Experimental: as §1, §2

| Molecule | concentration of Hb [1] [g/L] | hemoglobin, result in words ([1]; in comparison to control group, day 21) | Damaged RBC (RBC) [%] | Discocytes (RBC) [%] | Echinocytes (RBC) [%] | Weight of isolated tumors [2] [g] | tumor growth / measured tumor volumes [2] | morphological picture of RBC, result in words (RBC) |
| --- | --- | --- | --- | --- | --- | --- | --- | --- |
| N.N.[Cl][Pt][Cl] [cisplatin] | 129.49 ± 12.43 | significant increase in hemoglobin | 28.65 ± 3.98 | 46.36 ± 3.18 | 24.99 ± 3.84 | 9.88 ± 9.90 | significant decrease in measured tumor volumes |  |
| cis-[Re2(AdCOO)2Cl4].2CH3CN | 72.02 ± 11.12 |  | 21.53 ± 2.34 | 56.33 ± 4.32 | 22.14 ± 2.16 | 38.27 ± 16.77 | did not prevent tumor growth but caused a little delay in progression of growth | supported quantities of discocytes and echinocytes on a rather high level |
